Reference: US20240426824A1, “METHODS RELATING TO TREATMENT OF ACUTE MYELOID LEUKEMIA” (BOARD OF REGENTS, THE UNIVERSITY OF TEXAS SYSTEM, priority 2021, published 2024)

Experiments:
adults with AML = assay: Clinical outcome of VTX treated patients, clusters by 44-protein classifier (Example 1); type: in vivo, human
Method: Reverse Phase Protein Array (RPPA) as described by Tibes et al. 2006 and Kornblau et al. 2011 was performed on leukemia blast enriched fractions prepared from diagnostic samples of 818 adults with AML, of which 143 were treated with venetoclax (VTX) including 33 in combination with high dose Ara-C, 5 with standard dose Ara-C, 50 with hypomethylating agents (HMA), and 13 with HMA and targeted therapy (either CPX-351 liposome, a dual-drug liposomal encapsulation of cytarabine and daunorubicin, or anthracycline). Protein expression levels were evaluated using 390 validated antibodies against total and post translationally modified (phosphorylated, methylated, cleaved) as described by Hoff et al. 2019. proteins and were analyzed in the context of clinical data compiled by retrospective chart review. Pearson correlation was used to identify significant protein-protein correlations. Survival curves were generated by the Kaplan-Meier method and survival data was analyzed by multivariate cox regression model. Protein expression signatures were identified by hierarchical clustering and predictive models of protein classifiers were determined by classification and regression trees (CART) analysis.
We queried the 390 proteins (Table 1) assayed in the 143 VTX treated patients to identify proteins individually prognostic for overall survival (OS) or remission duration (REMDUR) and identified 27 proteins correlated with OS (p<0.01) and 44 proteins correlated with REMDUR (p<0.01). Neither MCL1, BCLXL nor BCL2 expression at diagnosis were prognostic of overall survival (OS) or remission duration (REMDUR).

[1] = tested on: adult patients with newly diagnosed AML; assay: Clinical outcome of VTX-containing induction chemotherapy, clusters by 36-protein classifier (Example 2); type: in vivo, human
Excerpt: Sample Collection and Processing. Peripheral blood (PB) and bone marrow (BM) samples were collected from 818 adult patients with newly diagnosed AML, of which 143 received VTX-containing induction chemotherapy, evaluated at the University of Texas MD Anderson Cancer Center (MDACC) between January 2012 and July 2020. Informed consent was obtained in accordance with the Declaration of Helsinki. Samples were processed and analyzed under an Investigational Review Board (IRB) approved laboratory protocol (Lab 06-0565).
Following data normalization, a cohort of 143 patients that received VTX-containing induction chemotherapy was identified for separate analysis for the purposes of this manuscript. Survival curves were generated by Kaplan-Meier method and survival data was analyzed by multivariate cox regression model. [Refs. 12, 13] Protein expression signatures were identified by hierarchical Progeny clustering. [Ref. 14] Correlations between clustered protein signatures and clinical features were assessed using Fisher's exact test for categorical variables and the Kruskal-Wallis test for continuous variables. Multivariate analysis for survival outcomes OS and RD was performed by Cox regression model. Median protein expression within clusters was compared to median expression in the normal controls to identify significant expression trends with the Wilcoxon test. Protein networks were built using Cytoscape (version 3.9.1) combining literature-based protein interactions queried from the STRING database and proteomic-based interactions inferred from the RPPA data derived from Pearson correlation. [Ref. 11] Predictive classifier models were assembled in Python using the random forest machine learning technique. All bioinformatics and analysis were performed in Rstudio (version 1.3.1093) with R (version 4.1.2).
A cohort of 143 patients that received VTX as a component of induction chemotherapy was identified, of which 27 received VTX combined with high-dose cytarabine (Ara-C), 29 combined with low- or standard-dose Ara-C, […], 6 with high-dose Ara-C and a hypomethylating agent, and 12 combined with targeted therapy (5 FLT3 inhibitors, 5 IDH inhibitors, 2 TP53 inhibitors). In the VTX cohort, 5 patients were not treated at MDACC leaving 138 patients evaluable for outcome and further analysis. Median age at diagnosis was 68 years (range 18-90 years) with median follow-up 58 weeks (range 2-396 weeks). […] Patient demographic, diagnostic labs, (data not shown) treatment, and outcome data was compiled to be analyzed against protein expression data.
Next, recurring patterns of expression were identified across the 36 proteins correlated to OS (FIGS. 3A and 3B) by applying the Progeny clustering algorithm utilizing k-means, and unbiased hierarchical clustering [Ref. 14] identifying three distinct protein expression patterns Cluster 1 (C1; n=41), Cluster 2 (C2; n=63), and Cluster 3 (C3; n=39). Protein expression was somewhat heterogeneous between clusters for several proteins, namely AR, STAT3.pY705, and RAF1.pS338. Expression of CDKN1B and CDKN1B.pS10 were nearly universally high in AML samples relative to the CD34+ controls, albeit phosphorylated CDKN1B was relatively higher in C1 members. While universally low across AMVL samples, ASH2L and MSH6 were relatively lower in the C1 signature as were PRMT1, MAPK14.pT180, HSF1.pS326, EIF4EBP1.pS65, EIF2AK2, and WDR5. The C3 signature was marked by relatively high expression of PrMT1, KMT2D, STAT3.pS727, EP300, and TSC2 and relatively low expression in AKR1C3, YWHAE, TNK1, COPS5, ATF3, SGK1, VTCN1, TNFRSF4, and PEA15.

MV4-11 VTX-sen cell line = assay: Immunoblot protein expression after VTX treatment, MV4-11 cells; type: cell-based; details: 24 hours post treatment with VTX, identical experimental conditions
Method: Protein expression validation in AML cell lines. MOLM-13 parental and VTX-resistant cells were the kind gift of Dr. Marina Konopleva (MD Anderson Cancer Center; Houston, TX, USA). OCI-AML-3, KG-1, and MV4-11 cells were obtained from the Leukemia Sample Bank (LSB) at MD Anderson. For protein expression comparison in cell lines, immunoblot analysis was performed. Cells were boiled and sonicated in lysis buffer and protein (1.5×10^5 cell equivalents) was subjected to electrophoresis using SDS/PAGE. Immunoblot analysis was performed with antibodies against CBL (BD Transduction Lab), PRKCB.pS660 (Cell Signaling, Beverly, MA), SYK (Santa Cruz, Dallas, TX), PKM2 (Cell Signaling), STAT3.pS727 (Cell Signaling), Beta-Actin (Sigma Aldrich, St. Louis, MO), GADPH (Ambion, Austin, TX) and Alpha-Tubulin (Sigma Aldrich). Signals were detected by using the ProteinSimple FluorChem imaging system and quantified by AlphaView software. Beta-Actin, GAPDH, and Alpha-Tubulin were used as loading controls. Densitometry was calculated as protein expression/expression of housekeeping gene, relative to the control.
The above findings were validated by looking for similar responses in cell lines in vitro in response to VTX exposure. […]

In the case of `CC1(C)CCC(CN2CCN(c3ccc(C(=O)NS(=O)(=O)c4ccc(NCC5CCOCC5)c([N+](=O)[O-])c4)c(Oc4cnc5[nH]ccc5c4)c3)CC2)=C(c2ccc(Cl)cc2)C1` [VTX, venetoclax], the Remission rate (adults with AML; cluster 1) is reported as 61%, the “relapse risk (RR) at 1-yr” value (adults with AML; cluster 1) is reported as 45% and the “estimated 3-yr overall survival” value (adults with AML; cluster 1 (n=102)) is reported as 27%. The Remission rate (adults with AML; cluster 2) was 77%, the “relapse risk (RR) at 1-yr” value (adults with AML; cluster 2) was 18% and the “estimated 3-yr overall survival” value (adults with AML; cluster 2 (n=41)) was 66%. For the same compound, the “median OS” value ([1]; C1) was 182.7 weeks, the relapse rate ([1]; C1, patients that achieved remission (n=32)) was 21.9% and the “median OS” value ([1]; C2) was 55.1 weeks. For the same compound, the median remission duration ([1]; C2) was 129 weeks, the relapse rate ([1]; C2, patients that achieved remission (n=40)) was 42.5% and the “median OS” value ([1]; C3) was 35.7 weeks. It also gave a median remission duration ([1]; C3) of 39 weeks, a relapse rate ([1]; C3, patients that achieved remission (n=18)) of 66.7% and a Remission rate ([1]; Cluster 1 (C1)) of 82%. The Remission rate ([1]; Cluster 2 (C2)) was 70%, the Remission rate ([1]; Cluster 3 (C3)) was 50% and the “Remission (CR/CRi) achieved” value ([1]; all evaluable patients (138), n=90) was 65%. For the same compound, the “relapsed, of patients in remission” value ([1]; of 90 patients in remission, n=36) was 40% and the “reduction in the expression of PKM2” value (MV4-11 VTX-sen cell line) was over 50%.
